Measured values as given in patent US7714146B2, “Azulene-oxindole compounds as multiple-kinase inhibitors and useful as anticancer agents” (Industrial Technology Research Institute, priority 2006, dated 2010).
pIC50: −log10 of the molar value.

Key:
Type in all cases: biochemical
[1] = biological target: T1, human c-KIT (Thr544-Val976) (Homo sapiens, UniProt P10721); experiment: c-KIT kinase assay (HTScan kit, DELFIA); conditions: for inhibition at 0.1 µM: compound at 0.1 μM, read-out: c-KIT 0.1 μM, % of inhibition relative to control; for inhibition at 1 µM: compound at 1 μM, read-out: c-KIT 1 μM, % of inhibition relative to control; for pIC50: read-out: c-KIT kinase inhibition (IC50)
T1 construct: human c-KIT (Thr544-Val976); GST (N); purchased Cell Signaling Technology; host or cells: baculovirus expression system
T1 sequence (P10721 544-976): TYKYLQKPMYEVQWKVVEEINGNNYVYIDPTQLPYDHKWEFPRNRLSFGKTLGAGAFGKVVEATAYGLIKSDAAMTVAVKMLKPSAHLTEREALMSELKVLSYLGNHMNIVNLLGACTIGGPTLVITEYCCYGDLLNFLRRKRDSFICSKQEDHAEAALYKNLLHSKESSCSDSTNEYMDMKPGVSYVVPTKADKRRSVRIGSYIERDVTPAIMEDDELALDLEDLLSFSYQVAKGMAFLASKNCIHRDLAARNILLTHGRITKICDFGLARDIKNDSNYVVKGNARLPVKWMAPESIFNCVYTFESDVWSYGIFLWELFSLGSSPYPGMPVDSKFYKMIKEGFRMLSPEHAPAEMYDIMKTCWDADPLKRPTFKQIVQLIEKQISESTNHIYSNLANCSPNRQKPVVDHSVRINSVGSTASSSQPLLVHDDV
Experimental: (§1) Compounds 1-100 were treated for their efficacy in inhibiting activities of FLT-3, c-KIT, KDR/Flk-1, PDGFR-beta, EGFR, and PKC kinases by biochemical DELFIA (Dissociation Enhanced Lanthanide FIA) assays according to the procedure described below. The assays were conducted by, Division of Cell Engineering, Biomedical Engineering Research Laboratories, Industrial Technology Research Institute, Bldg. 53, 195, sec. 4, Chung Hsing Rd. Chutung, Hsinchu, Taiwan 310, R.O.C.
(§2) The c-KIT assay was conducted following the protocol described in Protocol for HTScan® c-KIT Kinase Assay Kit (Cell Signaling Technology®). The assay was conducted under the following conditions: c-KIT source: The GST-c-KIT fusion protein was produced using a baculovirus expression system with a construct expressing human c-KIT (Thr544-Val976) with an amino-terminal GST tag, substrate: 1.5 μM This biotinylated peptide contains the residues surrounding Tyr-996 of KDR, vehicle: 1% DMSO, pre-incubation time/temperature: 5 minutes at room temperature, incubation time/temperature: 30 minutes at room temperature, incubation buffer: 60 mM HEPES pH 7.5, 5 mM MgCl2, 5 mM MnCl2, 3 μM Na3VO4, 1.25 mM DTT, 20 μM ATP, and quantitative method: DELFIA® Assay.

[2] = biological target: T2, human VEGFR-2 (Val789-Val1356) (Homo sapiens, UniProt P35968); experiment: KDR kinase assay (HTScan VEGFR-2 kit, DELFIA); conditions: for inhibition at 0.1 µM: compound at 0.1 μM, read-out: KDR 0.1 μM, % of inhibition relative to control; for inhibition at 1 µM: compound at 1 μM, read-out: KDR 1 μM, % of inhibition relative to control
T2 construct: human VEGFR-2 (Val789-Val1356); GST (N); purchased Cell Signaling Technology; host or cells: baculovirus expression system
T2 sequence (P35968 789-1356): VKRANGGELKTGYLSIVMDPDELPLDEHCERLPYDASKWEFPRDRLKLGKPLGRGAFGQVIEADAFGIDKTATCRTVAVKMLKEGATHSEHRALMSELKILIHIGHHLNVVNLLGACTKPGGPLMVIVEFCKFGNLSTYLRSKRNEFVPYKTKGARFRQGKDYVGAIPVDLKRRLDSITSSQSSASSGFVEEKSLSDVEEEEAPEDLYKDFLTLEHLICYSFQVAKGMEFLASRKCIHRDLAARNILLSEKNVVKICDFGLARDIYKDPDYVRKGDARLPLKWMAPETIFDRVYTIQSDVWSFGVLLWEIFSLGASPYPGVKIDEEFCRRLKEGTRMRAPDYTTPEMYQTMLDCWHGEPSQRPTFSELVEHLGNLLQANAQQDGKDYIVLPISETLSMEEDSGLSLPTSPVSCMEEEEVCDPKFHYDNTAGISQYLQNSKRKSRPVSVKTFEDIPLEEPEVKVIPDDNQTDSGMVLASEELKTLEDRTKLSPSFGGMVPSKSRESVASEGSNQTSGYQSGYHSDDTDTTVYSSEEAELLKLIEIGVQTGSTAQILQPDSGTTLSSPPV
Experimental: as §1
as §2, with “The KDR” for “The c-KIT”, “HTScan® VEGFR-2” for “HTScan® c-KIT”, “conditions: KDR” for “conditions: c-KIT”, “The GST-Kinase” for “The GST-c-KIT”, “human VEGFR-2 (Val789-Val1356) (GenBank Accession No. NM_002253)” for “human c-KIT (Thr544-Val976)”, “μM Gastrin Precursor Biotinylated Peptide (with Tyr87 as phosphorylation site),” for “μM This biotinylated peptide contains the residues surrounding Tyr-996 of KDR,”

[3] = biological target: T3, human FLT-3 (Arg571-Ser993) (Homo sapiens, UniProt P36888); experiment: FLT-3 kinase assay (HTScan kit, DELFIA); conditions: for inhibition at 1 µM: compound at 1 μM, read-out: FLT-3 1 μM, % of inhibition relative to control; for inhibition at 0.1 µM: compound at 0.1 μM, read-out: FLT-3 0.1 μM, % of inhibition relative to control; for pIC50: read-out: FLT-3 kinase inhibition (IC50)
T3 construct: human FLT-3 (Arg571-Ser993); GST (N); purchased Cell Signaling Technology; host or cells: baculovirus expression system
T3 sequence (P36888 571-993): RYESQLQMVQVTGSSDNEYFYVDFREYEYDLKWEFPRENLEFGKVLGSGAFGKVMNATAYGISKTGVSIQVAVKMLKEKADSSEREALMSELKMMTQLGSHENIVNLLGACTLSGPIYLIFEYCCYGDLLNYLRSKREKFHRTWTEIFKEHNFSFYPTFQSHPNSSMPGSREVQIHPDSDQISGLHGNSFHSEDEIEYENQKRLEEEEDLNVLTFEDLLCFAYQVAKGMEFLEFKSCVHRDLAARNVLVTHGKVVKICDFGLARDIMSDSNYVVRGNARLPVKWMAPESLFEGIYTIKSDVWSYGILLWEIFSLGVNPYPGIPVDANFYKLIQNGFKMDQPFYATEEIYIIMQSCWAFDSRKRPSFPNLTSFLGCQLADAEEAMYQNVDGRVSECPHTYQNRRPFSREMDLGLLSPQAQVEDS
Experimental: as §1
as §2, with “FLT-3” for “c-KIT”, “GST-kinase” for “GST-c-KIT”, “FLT-3 (Arg571-Ser993) (GenBank accession No. NM_004119)” for “c-KIT (Thr544-Val976)”, “Gastrin Precursor Biotinylated Peptide (with Tyr87 as phosphorylation site),” for “This biotinylated peptide contains the residues surrounding Tyr-996 of KDR,”

Row | inhibition at 0.1 µM [1] [%] | inhibition at 1 µM [1] [%] | inhibition at 0.1 µM [2] [%] | inhibition at 1 µM [2] [%] | inhibition at 1 µM [3] [%] | pIC50 [1] | pIC50 ([2]; read-out: KDR kinase inhibition (IC50)) | inhibition at 0.1 µM [3] [%] | pIC50 [3] | SMILES
1 | 31.5 | 31.5 | 17.1 | 69.2 | 6 |  |  |  |  | Cc1cc(/C=C2/C(=O)N(C(c3ccccc3)c3ccccc3)c3ccccc32)c2c(C)ccc(C(C)C)cc1-2 [Compound 14, 1-Benzhydryl-3-(5-isopropyl-3,8-dimethyl-azulen-1-ylmethylene)-1,3-dihydro-indol-2-one]
2 | 34.4 | 34.4 | 38.6 | 63.8 | 96.8 | < 6.00 | 6.30 | 74.3 | 7.60 | Cc1cc(/C=C2/C(=O)Nc3ccc(F)cc32)c2ccccc(OCCCN(C)C)c1-2 [Compound 68, 3-[4-(3-Dimethylamino-propoxy)-3-methyl-azulen-1-ylmethylene]-5-fluoro-1,3-dihydro-indol-2-one]
3 | 26.9 | 26.9 | 9.5 | 15.6 | 34.6 |  |  | 7.3 |  | COc1ccc2c(c1)NC(=O)/C2=C/c1ccc2cccccc1-2 [Compound 30, 3-Azulen-1-ylmethylene-6-methoxy-1,3-dihydro-indol-2-one]
4 | 42.5 | 57.4 | 30.1 | 88 | 44.8 |  |  | 14.6 |  | Cc1cc(C=C2C(=O)Nc3ncccc32)c2ccccc(OCCCN(C)C)c1-2 [Compound 104, 3-(((3aZ,5Z,7E)-8-(3-(dimethylamino)propoxy)-1-methylazulen-3-yl)methylene)-1H-pyrrolo[2,3-b]pyridin-2(3H)-one]
5 |  |  | 40.4 | 52.4 | 32.8 |  |  | 33.9 |  | COc1ccc(CN2C(=O)/C(=C/c3cc(C)c4cc(C(C)C)ccc(C)c3-4)c3ccccc32)cc1 [Compound 73, 3-(5-Isopropyl-3,8-dimethyl-azulen-1-ylmethylene)-1-(4-methoxy-benzyl)-1,3-dihydro-indol-2-one]
6 | 19.6 | 19.6 | 20.8 | 26.7 | 17.7 |  |  | 10.5 |  | CCc1cc(C=C2C(=O)Nc3ccc(S(=O)(=O)NCCCN4CCN(C)CC4)cc32)c2cccccc1-2 [Compound 83, 3-(3-Ethyl-azulen-1-ylmethylene)-2-oxo-2,3-dihydro-1H-indole-5-sulfonic acid [3-(4-methyl-piperazin-1-yl)-propyl]-amide]
7 | 34.8 | 34.8 | 35.4 | 34.2 | 53 |  |  | 12.6 |  | O=C1Nc2ccc(F)cc2/C1=C\c1cc2cccccc-2c1F [Compound 56, 5-Fluoro-3-(1-fluoro-azulen-2-ylmethylene)-1,3-dihydro-indol-2-one]
8 | 24.2 | 24.2 | 19.9 | 28.5 | 49.8 |  |  | 43 |  | CN(C)Cc1c(/C=C2/C(=O)Nc3ccc(F)cc32)cc2cccccc1-2 [Compound 59, 3-(1-Dimethylaminomethyl-azulen-2-ylmethylene)-5-fluoro-1,3-dihydro-indol-2-one]
9 | 65.1 | 65.1 | 35.5 | 93.6 | 98.4 | 6.80 |  | 70.9 | 8.03 | Cc1cc(/C=C2\C(=O)Nc3ccc(F)cc32)c2ccccc(OCCCN(C)C)c1-2 [Compound 95, 3-[4-(3-Dimethylamino-propoxy)-3-methyl-azulen-1-ylmethylene]-5-fluoro-1,3-dihydro-indol-2-one]
10 | 71 | 71 | 1.9 | 11.5 | 85.7 | 7.75 |  | 56.9 | 8.32 | Cc1cc(C=C2C(=O)Nc3ccc(F)cc32)c2ccccc(OCCCN3CCOCC3)c1-2 (mixture of isomers) [Compound 87, 5-Fluoro-3-[3-methyl-4-(3-morpholin-4-yl-propoxy)-azulen-1-ylmethylene]-1,3-dihydro-indol-2-one]
11 |  |  |  |  | 14.7 |  |  |  |  | O=C1/C(=C\c2ccc3cccccc2-3)c2ccccc2N1C(c1ccccc1)c1ccccc1 [Compound 4, 3-Azulen-1-ylmethylene-1-benzhydryl-1,3-dihydro-indol-2-one]
12 |  |  | 5.1 | 70.9 | 69.4 |  |  | 45.8 |  | Cc1cc(/C=C2/C(=O)N(Cc3ccc(C#N)cc3)c3ccccc32)c2c(C)ccc(C(C)C)cc1-2 [Compound 74, 4-[3-(5-Isopropyl-3,8-dimethyl-azulen-1-ylmethylene)-2-oxo-2,3-dihydro-indol-1-ylmethyl]-benzonitrile]
13 | 23.4 | 23.4 |  |  |  |  |  |  |  | Cc1cc(C=C2C(=O)Nc3ccc(S(=O)(=O)Nc4ccccn4)cc32)c2cccccc1-2 [Compound 77]
14 |  |  | 39.5 | 28.3 | 43.4 |  |  | 18.6 |  | O=C1Nc2ccc(Cl)cc2/C1=C/c1ccc2cccccc1-2 [Compound 23, 3-Azulen-1-ylmethylene-5-chloro-1,3-dihydro-indol-2-one]
15 | 28.2 | 28.2 |  |  |  |  |  |  |  | COC(=O)c1cc(/C=C2\C(=O)Nc3ccc(F)cc32)c2cccccc1-2 [Compound 76, 3-(5-Fluoro-2-oxo-1,2-dihydro-indol-3-ylidenemethyl)-azulene-1-carboxylic acid methyl ester]
16 |  |  | 32.9 | 42.5 |  |  |  | 17.2 |  | COC(=O)C1C2=CC=CC=C(OC)C2=C(/C=C2\C(=O)Nc3ccc(F)cc32)C1OC (centres unmarked) [Compound 69, 3-(5-Fluoro-2-oxo-1,2-dihydro-indol-3-ylidenemethyl)-2,4-dimethoxy-1,2-dihydro-azulene-1-carboxylic acid methyl ester]
